Eleven molecules from patent US20150274719A1, “AMINO-SUBSTITUTED IMIDAZO[1,2-A]PYRIDINECARBOXAMIDES AND THEIR USE” (BAYER PHARMA AKTIENGESELLSCHAFT, priority 2012, published 2015) can be followed below.

The test addresses T1, recombinant guanylate cyclase reporter cell line (Rattus norvegicus, UniProt P19686+P20595).
T1 construct: expressed in transfected cells; host or cells: recombinant reporter cell line
T1 sequence (P19686 1-690): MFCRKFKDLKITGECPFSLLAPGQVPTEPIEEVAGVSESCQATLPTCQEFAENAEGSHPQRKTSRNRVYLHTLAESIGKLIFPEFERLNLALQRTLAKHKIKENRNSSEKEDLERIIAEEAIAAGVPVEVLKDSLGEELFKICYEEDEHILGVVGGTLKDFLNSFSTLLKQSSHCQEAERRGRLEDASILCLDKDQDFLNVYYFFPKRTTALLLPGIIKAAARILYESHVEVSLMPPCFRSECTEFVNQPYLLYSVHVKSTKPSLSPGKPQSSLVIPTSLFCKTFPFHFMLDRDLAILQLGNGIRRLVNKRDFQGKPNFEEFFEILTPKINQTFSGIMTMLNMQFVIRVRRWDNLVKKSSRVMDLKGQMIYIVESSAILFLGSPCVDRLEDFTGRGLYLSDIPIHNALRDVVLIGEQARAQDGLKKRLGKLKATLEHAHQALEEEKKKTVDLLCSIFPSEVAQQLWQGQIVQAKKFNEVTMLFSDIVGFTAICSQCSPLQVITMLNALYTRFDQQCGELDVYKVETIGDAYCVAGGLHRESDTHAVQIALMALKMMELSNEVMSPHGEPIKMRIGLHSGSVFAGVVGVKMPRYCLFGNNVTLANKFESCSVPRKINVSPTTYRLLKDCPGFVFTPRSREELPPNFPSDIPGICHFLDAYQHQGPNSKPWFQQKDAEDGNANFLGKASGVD
T1 sequence (P20595 1-619): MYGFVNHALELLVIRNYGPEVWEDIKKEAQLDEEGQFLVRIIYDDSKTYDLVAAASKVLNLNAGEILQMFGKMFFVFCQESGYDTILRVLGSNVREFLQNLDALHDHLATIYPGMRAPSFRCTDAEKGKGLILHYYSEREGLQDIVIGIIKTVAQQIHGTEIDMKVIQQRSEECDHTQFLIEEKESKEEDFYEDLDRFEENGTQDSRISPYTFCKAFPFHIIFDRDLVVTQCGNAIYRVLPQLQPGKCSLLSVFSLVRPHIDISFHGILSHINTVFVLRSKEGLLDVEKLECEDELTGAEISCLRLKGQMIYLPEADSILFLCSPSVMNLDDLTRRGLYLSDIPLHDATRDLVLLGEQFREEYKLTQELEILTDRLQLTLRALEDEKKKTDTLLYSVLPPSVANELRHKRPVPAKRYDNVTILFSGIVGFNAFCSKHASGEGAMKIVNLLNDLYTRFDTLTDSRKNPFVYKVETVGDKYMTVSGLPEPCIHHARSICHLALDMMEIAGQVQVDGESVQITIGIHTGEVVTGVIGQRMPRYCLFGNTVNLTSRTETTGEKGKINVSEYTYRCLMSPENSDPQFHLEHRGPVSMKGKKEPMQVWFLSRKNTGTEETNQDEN
Put plainly: Action on recombinant guanylate cyclase reporter cell line. The format is cell-based. Conditions: in some cases mean values from individual determinations. As to the method:
B-2. Action on Recombinant Guanylate Cyclase Reporter Cell Line
The cellular action of the compounds according to the invention is determined on a recombinant guanylate cyclase reporter cell line, as described in F. Wunder et al., Anal. Biochem. 339, 104-112 (2005).
Representative MEC values (MEC=minimal effective concentration) for the compounds according to the invention are shown in the following table (in some cases as mean values obtained from individual determinations): […]
For the molecule `Cc1cc(OCc2c(F)cccc2F)c2nc(C)c(C(=O)NCC(N)COC(C)C)n2c1` (racemic) [Example 206, rac-N-(2-Amino-3-isopropoxypropyl)-8-[(2,6-difluorobenzyl)oxy]-2,6-dimethylimidazo[1,2-a]-pyridine-3-carboxamide], the “MEC (minimal effective concentration)” value amounted to 0.30 µM.

As for `Cc1nc2c(OCc3c(F)cccc3F)cccn2c1C(=O)NCC(N)C(F)(F)F` (racemic) [Example 207, rac-N-(2-Amino-3,3,3-trifluoropropyl)-8-[(2,6-difluorobenzyl)oxy]-2-methylimidazo[1,2-a]-pyridine-3-carboxamide], the “MEC (minimal effective concentration)” value came to 1.00 µM. `COCC(C)(N)CNC(=O)c1c(C)nc2c(OCc3c(F)cccc3F)cccn12` (racemic) [Example 213, rac-N-(2-Amino-3-methoxy-2-methylpropyl)-8-[(2,6-difluorobenzyl)oxy]-2-methylimidazo[1,2-a]-pyridine-3-carboxamide]: the “MEC (minimal effective concentration)” value is 1.00 µM. In the case of `Cc1nc2c(OCc3c(F)cccc3F)cc(Cl)cn2c1C(=O)NCC(N)COC(C)C` (racemic) [Example 217, rac-N-(2-Amino-3-isopropoxypropyl)-6-chloro-8-[(2,6-difluorobenzyl)oxy]-2-methylimidazo[1,2-a]pyridine-3-carboxamide], the “MEC (minimal effective concentration)” value was determined as 1.00 µM. On to `Cc1cc(OCc2c(F)cccc2F)c2nc(C)c(C(=O)NCC(C)(N)CC(C)C)n2c1` (racemic) [Example 218, rac-N-(2-Amino-2,4-dimethylpentyl)-8-[(2,6-difluorobenzyl)oxy]-2,6-dimethylimidazo[1,2-a]-pyridine-3-carboxamide], for which the “MEC (minimal effective concentration)” value was 0.10 µM. With `Cc1nc2c(OCc3c(F)cccc3F)cc(Cl)cn2c1C(=O)NCC(C)(N)CC(C)C` (racemic) [Example 225, rac-N-(2-Amino-2,4-dimethylpentyl)-6-chloro-8-[(2,6-difluorobenzyl)oxy]-2-methylimidazo[1,2-a]pyridine-3-carboxamide], the “MEC (minimal effective concentration)” value is 0.30 µM. For `Cc1nc2c(OCc3c(F)cccc3F)cccn2c1C(=O)NCC(N)C(F)(F)C(F)F` (racemic) [Example 230, rac-N-(2-Amino-3,3,4,4-tetrafluorobutyl)-8-[(2,6-difluorobenzyl)oxy]-2-methylimidazo[1,2-a]-pyridine-3-carboxamide], the “MEC (minimal effective concentration)” value was found to be 1.00 µM. The same measure for `CCCC(C)(N)CNC(=O)c1c(C)nc2c(OCc3c(F)cccc3F)cc(C)cn12` (racemic) [Example 232, rac-N-(2-Amino-2-methylpentyl)-8-[(2,6-difluorobenzyl)oxy]-2,6-dimethylimidazo[1,2-a]pyridine-3-carboxamide]: 0.10 µM.

On to `Cc1cc(OCc2c(F)cccc2F)c2nc(C)c(C(=O)NCC3CCc4ccccc4N3)n2c1` (racemic) [Example 235, rac-8-[(2,6-Difluorobenzyl)oxy]-2,6-dimethyl-N-(1,2,3,4-tetrahydroquinolin-2-ylmethyl)imidazo-[1,2-a]pyridine-3-carboxamide], for which the “MEC (minimal effective concentration)” value is 0.30 µM.

For `Cc1nc2c(OCc3c(F)cccc3F)cc(Cl)cn2c1C(=O)NCC(C)(N)C(F)(F)F` (racemic) [Example 236, rac-N-(2-Amino-3,3,3-trifluoro-2-methylpropyl)-6-chloro-8-[(2,6-difluorobenzyl)oxy]-2-methyl-imidazo[1,2-a]pyridine-3-carboxamide], the “MEC (minimal effective concentration)” value was 0.30 µM. For the molecule `Cc1cc(OCc2c(F)cccc2F)c2nc(C)c(C(=O)NCC(C)(N)C(F)(F)F)n2c1` (racemic) [Example 239, rac-N-(2-Amino-3,3,3-trifluoro-2-methylpropyl)-8-[(2,6-difluorobenzyl)oxy]-2,6-dimethyl-imidazo[1,2-a]pyridine-3-carboxamide], the “MEC (minimal effective concentration)” value came out at 0.30 µM.
